The source of these data is patent US20240392241A1, “METHOD FOR PRODUCING CELL MASS INCLUDING PITUITARY TISSUE AND CELL MASS” (SUMITOMO CHEMICAL COMPANY, LIMITED, priority 2021, published 2024).

Common to all, as to type: cell-based
Data set [1] relates to human iPS cells (1231A3 strain). Kind of data set: Timing of JNK inhibitor addition in pituitary organoid differentiation, bright field observation (Example 2). To be noted: observed day 28. The method, then: In Example 2, according to step shown in FIG. 2A, a cell population including cells that constitute pituitary tissue was produced. Specifically, human iPS cells (1231A3 strain, obtained from RIKEN) were cultured under feeder-free conditions according to the method described in Scientific Reports, 4, 3594 (2014). As the feeder-free medium, StemFit medium was used and, as the feeder-free scaffold, Laminin 511-E8 was used.
Differentiation induction was performed under the same conditions as in Example 1 except for the condition of adding a JNK inhibitor, compared to the conditions of Example 1. As the condition for adding JNK inhibitor, conditions including addition of JNK—IN-8 (manufactured by Merck, 1 μM), which is a c-Jun N-terminal kinase (JNK) inhibitor, on days 0, 2, 6, 10, and 13 after the start of differentiation induction were compared with conditions without addition of JNK inhibitor. When the JNK inhibitor is added on days 2, 6, 10, and 13 after the start of differentiation induction, 2 μM was added to the medium when adding or replacing the medium, so that the final concentration in the well would be 1 μM.
On day 28 after the start of suspension culture, bright field observation by polarized illumination was performed using an inverted microscope (manufactured by KEYENCE CORPORATION, BIOREVO BZ-X800) (FIG. 2B).

In data set [2] the test system is cell mass derived from human iPS cell line 201B7. As to the kind of experiment: ACTH concentration in culture medium of cell masses by ELISA (Example 4). The note with it: for ACTH concentration in the medium compared with JNK inhibitor non-addition conditions: 1 μM from day 0; for ACTH concentration in the medium vs non-addition condition: 3 μM. The method, then: In Example 4, according to step shown in FIG. 4A, a cell population including cells that constitute pituitary tissue was produced. Specifically, the culture supernatant of a cell mass derived from human iPS cell line 201B7 prepared by the method described in Example 3 was collected over time, and the amount of ACTH secreted per cell mass was measured. As a specific measurement method, cell masses containing pituitary tissue were prepared under four conditions: from day 0 to day 30 of differentiation induction, conditions in which the JNK inhibitor JNK—IN-8 was added at 1 μM, 3 μM, or 10 μM, and no addition control. […] Thereafter, the cell masses prepared by adding 1 μM or 3 μM of JNK—IN-8 and the non-addition control were suspension cultured in a 10 cm dish with 20 ml of medium, and half of the medium was replaced every 3 to 4 days. The culture supernatant was collected before replacement of a half-volume of the medium on days 61, 103, 152, and 201 of differentiation induction, and frozen at −150° C. When all samples were collected, the ACTH concentration in the recovered medium was measured by the ELISA method used in clinical testing (testing outsourced to SRL, Ltd.). Based on the obtained ACTH concentration data (pg/mL), the total number of cell masses at the time of sampling and the total amount of culture medium were corrected to the ACTH concentration under the conditions where 20 cell masses were cultured in 20 ml of medium, and shown in a graph. A similar experiment was performed twice.
As a result, the ACTH concentration in the medium was about 5 times as high on day 61 of differentiation induction, about 2 times as high on days 103 and 152 of differentiation induction, and about 1.3 times as high on day 201 of differentiation induction under the conditions in which 1 μM JNK—IN-8 was added from day 0 of differentiation induction, compared with the JNK inhibitor non-addition conditions. Under the conditions in which 3 μM JNK—IN-8 was added, the ACTH concentration in the medium was higher on days 61 and 103 of differentiation induction than that in the non-addition condition, but lower on days 152 and 201 of differentiation induction than that in the non-addition condition. From the above results, it was shown that the addition of a JNK inhibitor improves the ACTH secretory capacity per cell mass in differentiation induction of pituitary tissue from pluripotent stem cells, and that the concentration of the JNK inhibitor to be added is preferably not more than 3 μM (FIG. 4B).

The test system of data set [3] is human iPS cells (201B7 strain). Kind of data set: Immunostaining of ACTH and E-cadherin in cell aggregates on day 103 (Example 7). The method, then:
According to the steps shown in FIG. 10A, suspension culturing was performed using human iPS cells (201B7 strain) in the same manner as in Example 4, and continued until day 103. Using the obtained cell aggregates, cryosections were prepared in the same manner as in Example 3. The obtained sections were subjected to immunostaining using anti-ACTH antibody (manufactured by Fitzgerald Industries) and anti-E-cadherin antibody (manufactured by Takara Bio Inc.), and the nucleus was stained with DAPI. […] The scale bar at the bottom right of FIG. 10B indicates 200 μm.

Take `Cc1cc(NC(=O)c2cccc(NC(=O)/C=C/CN(C)C)c2)ccc1Nc1nccc(-c2cccnc2)n1` [JNK—IN-8, (E)-3-(4-(dimethylamino)but-2-enamido)-N-(3-methyl-4-((4-(pyridin-3-yl)pyrimidin-2-yl)amino)phenyl)benzamide]: the “formation of nonneural epithelium/pituitary vs no addition” value in data set [1] (JNK—IN-8 1 μM added on days 0, 2, and 6 after start of differentiation induction) is given as “formed more efficiently”; in data set [1] (JNK—IN-8 1 μM added on days 10 and 13 after start of differentiation) it was “no difference”. The “ACTH concentration in the medium compared with JNK inhibitor non-addition conditions” value in data set [2] (day 61 of differentiation induction) is on record as “about 5 times”; in data set [2] (day 201 of differentiation induction), “about 1.3 times”; in data set [2] (days 103 and 152 of differentiation induction) it was “about 2 times”. Moreover, the “ACTH concentration in the medium vs non-addition condition” value in data set [2] (days 61 and 103 of differentiation induction) is “higher”; in data set [2] (days 152 and 201 of differentiation induction) it was “lower”. In data set [2] (10 μM added from day 0 to day 30 of differentiation induction), the “state of cell mass” value is listed as “collapse of cell mass”. For the same molecule, the “proportion of ACTH-positive cells in the entire cell aggregate” value in data set [3] (JNKi(+), mean±SEM, n=8-12) is 42.2±4.4 % of total cells. Besides, the “proportion of E-cadherin-positive cells in the layer covering the surface of cell aggregates vs non-addition control” value in data set [3] (JNK—IN-8 added) is reported as “higher”.
